According to patent publication US8119614B2, “Substitution derivatives of N6-benzyladenosine, methods of their preparation, their use for preparation of drugs, cosmetic preparations and growth regulators, pharmaceutical preparations, cosmetic preparations and growth regulators containing these compounds” (Ustav Experimentalni Botaniky Akademie Ved Ceske Republiky, priority 2002, dated 2012):
Like-named read-outs stand apart in the source and are kept apart here.

Legend:
[1] = tested on: human diploid fibroblasts (HCA cells); assay: Inhibition of senescence of mammal cells: β-galactosidase staining of senescent cells; assay type: cell-based; conditions: for Senescent cells (%) HCA25: passage 25; for Senescent cells (%) HCA45: passage 45; for Senescent cells (%) HCA80: passage 80
Protocol: In this example, human diploid fibroblasts (HCA cells with different levels of passage: passage 25—labelling HCA25; passage 45—labelling HCA45; passage 80—labelling HCA80) were used for studying β-galactosidase activity. Medium used for cells cultivation was removed, cells were washed twice with PBS and fixed in 2-3 ml of fixation agent consisting of 2% of formaldehyde and 0.2% of flutaraldehyde in PBS. Cells were incubated at room temperature for 5 min and subsequently washed twice with PBS. Cells were then incubated at 37° C. (without CO2) for 1 to 16 hours in 2-3 ml of solution comprising potassium ferricyanide (5 mM), potassium ferrocyanide (5 mM), MgCl2 (2 mM), X-gal (5-bromo-4-chloro-3-indolyl-β-D-galactopyranoside) (1 mg/ml) in citrate/phosphate buffer, pH 6.0. […] In this experiment only senescent cells were labelled due to the effect of β-galactosidase on the substrate.

HOS = assay: In vitro cytotoxic activity, Calcein AM assay, HOS; assay type: cell-based; conditions: 72 hours
[2] = tested on: human erythroleukaemia K562; assay: In vitro cytotoxic activity, Calcein AM assay, K-562; assay type: cell-based; conditions: read-out: IC 50 K-562
In short: (§1)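 Cells seeded at 10^4 per well, pre-incubated 24 h at 37 °C/5% CO2, then exposed 72 h to six 4-fold dilutions of compound (top well concentration usually 166.7 μM) in duplicate. Viability read by Calcein AM fluorescence after 1 h; GI50 taken from dose-response curves.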

[3] = tested on: breast carcinoma cell lines MCF-7; assay: In vitro cytotoxic activity, Calcein AM assay, MCF7; assay type: cell-based, human; conditions: read-out: IC 50 MCF7
In short: as §1

mouse fibroblasts NIH3T3 = assay: In vitro cytotoxic activity, Calcein AM assay, NIH-3T3; assay type: cell-based; conditions: read-out: IC 50 NIH-3T3
In short: as §1

[4] = tested on: Human T-lymphoblastic leukemia cell line CEM; assay: In vitro cytotoxic activity, Calcein AM assay, CEM; assay type: cell-based; conditions: 72 hours
In short: as §1

promyelocytic HL-60 = assay: In vitro cytotoxic activity, Calcein AM assay, HL60; assay type: cell-based, human; conditions: read-out: IC 50 HL60
In short: as §1

[5] = tested on: Triticum aestivum cv. Hereward; assay: Senescence inhibition on winter wheat leaf segments (chlorophyll retention); assay type: in vivo; conditions: for Concentration with highest activity: chlorophyll retention in excised wheat leaf tips, 96 h dark; for Activity (%) [10^−4 mol · l^−1 BAP = 100%]: chlorophyll retention, at concentration with highest activity
In short: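 Tip segments of the first leaf from 7-day wheat seedlings held, basal ends down, in cytokinin solutions (10^−8M to 10^−4M) for 96 h at 25° C in darkness. Chlorophyll extracted in 80% ethanol at 80° C, read at 665 nm; activity at best concentration given relative to 10^−4 M BAP (100%), means of five replicates.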

[6] = tested on: tobacco callus Nicotiana tabacum L. cv. Wisconsin 38; assay: Growth of cytokinin-dependent tobacco callus; assay type: cell-based; conditions: for Activity (%) [10^−5 mol · l^−1 BAP = 100%]: callus growth, at concentration with highest activity; for Concentration with highest activity: fresh callus weight after four weeks
Protocol: Cytokinin-dependent tobacco callus Nicotiana tabacum L. cv. Wisconsin 38 was maintained at 25° C. in darkness on modified Murashige-Skoog medium, containing per 1 liter: 4 μmol nicotinic acid, 2.4 μmol pyridoxine hydrochloride, 1.2 μmol thiamine, 26.6 μmol glycine, 1.37 μmol glutamine, 1.8 μmol myo-inositol, 30 g of sucrose, 8 g of agar, 5.37 μmol α-naphtylacetic acid (NAA) and 0.5 μmol benzylaminopurine (BAP). Subcultivation was carried out every three weeks. Fourteen days before the bioassay, the callus tissue was transferred to the media without 6-benzylaminopurine (BAP). Biological activity was determined from the increase in fresh callus weight after four weeks of cultivation. Five replicates were prepared for each cytokinin concentration and the entire test was repeated twice. From the obtained data, the concentration with highest activity was selected for each compound tested. Relative activity of the compound at this concentration was calculated (Tab. 6). […] The cytokinins to be tested were dissolved in dimethylsulfoxide (DMSO) and the solution brought up to 10^−3M with distilled water. This stock was further diluted in the respective media used for the biotest to concentrations ranging from 10^−8M to 10^−4M.

[7] = tested on: Amaranthus caudatus cotyledon/hypocotyl explants; assay: Amaranthus bioassay (betacyanin content); assay type: in vivo; conditions: for Concentration with highest activity: 48 h dark; for Activity (%) [10^−5 mol · l^−1 BAP = 100%]: at concentration with highest activity
In short: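 Surface-sterilised Amaranthus caudatus var. atropurpurea seeds were germinated 72 h at 25° C. in darkness, then de-rooted. Cotyledon/hypocotyl explants (20 per dish) were incubated under green safe light on filter paper with 1 ml medium of 10 μmol NA2HPO4-KH2PO4, pH 6.8, 5 μmol tyrosine and cytokinin (10^-8M to 10^-4M) for 48 h at 25° C. in darkness. Betacyanin was extracted in […] acetic acid and measured by absorbance at 537 nm and 620 nm.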

[8] = tested on: human malignant melanoma cells G361; assay: In vitro cytotoxic activity, Calcein AM assay, G-361; assay type: cell-based; conditions: read-out: IC 50 G-361
Description: One of the parameters used, as the basis for cytotoxicity assays, is the metabolic activity of viable cells. For example, a microtiter assay, which uses the Calcein AM, is now widely used to quantitate cell proliferation and cytotoxicity. For instance, this assay is used in drug screening programs and in chemosensitivity testing. Because only metabolically active cells cleave Calcein AM, these assays detect viable cells exclusively. The quantity of reduced Calcein AM corresponds to the number of vital cells in the culture.
Human T-lymphoblastic leukemia cell line CEM; promyelocytic HL-60 and monocytic U937 leukemias; breast carcinoma cell lines MCF-7; cervical carcinoma cells HELA; mouse fibroblasts NIH3T3; human erythroleukaemia K562 and human malignant melanoma cells G361 were used for routine screening of compounds. The cells were maintained in Nunc/Corning 80 cm^2 plastic tissue culture flasks and cultured in cell culture medium (DMEM with 5 g/l glucose, 2 mM glutamine, 100 U/ml penicillin, 100 μg/ml streptomycin, 10% fetal calf serum and sodium bicarbonate).
The cell suspensions that were prepared and diluted according to the particular cell type and the expected target cell density (10^4 cells per well based on cell growth characteristics) were added by pipette (80 μl) into 96/well microtiter plates. Inoculates were allowed a pre-incubation period of 24 hours at 37° C. and 5% CO2 for stabilisation. Four-fold dilutions of the intended test concentration were added at time zero in 20 μl aliquots to the microtiter plate wells. Usually, test compound was evaluated at six 4-fold dilutions. In routine testing, the highest well concentration was 166.7 μM, but it can be the matter of change dependent on the agent. All drug concentrations were examined in duplicates. Incubations of cells with the test compounds lasted for 72 hours at 37° C., in 5% CO2 atmosphere and 100% humidity. At the end of incubation period, the cells were assayed by using the Calcein AM. Ten microliters of the stock solution were pipetted into each well and incubated further for 1 hours. Fluorescence (FD) was measured with the Labsystem FIA Reader Fluoroscan Ascent (UK). The tumour cell survival (GI50) was calculated using the following equitation: GI50=(FDdrug exposed well/mean FDcontrol wells)×100%. The GI50 value, the drug concentration lethal to 50% of the tumour cells, was calculated from the obtained dose response curves (FIG. 3).

SMILES	IC50 (HOS) [µM]	IC50 ([2]; 72 hours) [µM]	IC50 ([3]; 72 hours) [µM]	IC50 (mouse fibroblasts NIH3T3; 72 hours) [µM]	IC50 [4] [µM]	IC50 (promyelocytic HL-60; 72 hours) [µM]	IC50 ([8]; 72 hours) [µM]	other results
COc1cccc(CNc2ncnc3c2ncn3[C@@H]2O[C@H](CO)[C@@H](O)[C@H]2O)c1OC [2,3-dimethoxybenzylamino, 6-(2,3-dimethoxybenzylamino)purine riboside]	> 167	> 167	> 167	> 167	> 167	109		Senescent cells (%) HCA25 [1]: 4%; Senescent cells (%) HCA45 [1]: 5%; Senescent cells (%) HCA80 [1]: 18%; Concentration with highest activity [5]: 10^−4 mol · l^−1; Activity (%) [10^−4 mol · l^−1 BAP = 100%] [5]: 106 ± 17%; Activity (%) [10^−5 mol · l^−1 BAP = 100%] [6]: 5 ± 2%; Concentration with highest activity [6]: 10^−6 mol · l^−1; Concentration with highest activity [7]: 10^−4 mol · l^−1; Activity (%) [10^−5 mol · l^−1 BAP = 100%] [7]: 21 ± 7%
Nc1cc(CNc2ncnc3c2ncn3[C@@H]2O[C@H](CO)[C@@H](O)[C@H]2O)ccc1Cl [3-amino-4-chlorobenzylamino, 6-(3-amino-4-chlorobenzylamino)purine riboside]								Senescent cells (%) HCA25 [1]: 4%; Senescent cells (%) HCA45 [1]: 6%; Senescent cells (%) HCA80 [1]: 22%
OC[C@H]1O[C@@H](n2cnc3c(Nc4cccc(Cl)c4)ncnc32)[C@H](O)[C@@H]1O [3-chloroanilino]								Senescent cells (%) HCA25 [1]: 4%; Senescent cells (%) HCA45 [1]: 4%; Senescent cells (%) HCA80 [1]: 27%
COc1ccc(CNc2ncnc3c2ncn3[C@@H]2O[C@H](CO)[C@@H](O)[C@H]2O)cc1 [4-methoxybenzylamino, 6-(4-methoxybenzylamino)purine riboside]	> 167	> 167	> 167	> 167	> 167	> 167	115	Concentration with highest activity [5]: 10^−4 mol · l^−1; Activity (%) [10^−4 mol · l^−1 BAP = 100%] [5]: 110 ± 9%; Activity (%) [10^−5 mol · l^−1 BAP = 100%] [6]: 2 ± 2%; Concentration with highest activity [6]: 10^−6 mol · l^−1; Concentration with highest activity [7]: 10^−4 mol · l^−1; Activity (%) [10^−5 mol · l^−1 BAP = 100%] [7]: 17 ± 8%
c1coc(CNc2ncnc3[nH]cnc23)c1 [Kinetin, reference compound]								Senescent cells (%) HCA25 [1]: 3%; Senescent cells (%) HCA45 [1]: 5%; Senescent cells (%) HCA80 [1]: 25%
OC[C@H]1O[C@@H](n2cnc3c(NCc4ccc(O)cc4)nc(Cl)nc32)[C@H](O)[C@@H]1O [R2 = Cl, 4-hydroxybenzylamino]	> 167	> 167	> 167	> 167	39.7	9.5	> 167	
COc1ccc(CNc2nc(Cl)nc3c2ncn3[C@@H]2O[C@H](CO)[C@@H](O)[C@H]2O)cc1 [R2 = Cl, 4-methoxyxybenzylamino]	> 167	> 167	> 167	> 167	> 167	> 167	105	
COc1ccccc1CNc1nc(N)nc2c1ncn2[C@@H]1O[C@H](CO)[C@@H](O)[C@H]1O [R2 = NH2,2-methoxyxybenzylamino, 2-amino-6-(2-methoxybenzylamino)purine riboside]	27.8	34.9	> 167	> 167	12.8	7.8	> 167	
Nc1nc(NCc2cccc(F)c2)c2ncn([C@@H]3O[C@H](CO)[C@@H](O)[C@H]3O)c2n1 [R2 = NH2,3-fluorobenzylamino]	> 167	12	36	> 167	21	3.4	21	
COc1cccc(CNc2nc(N)nc3c2ncn3[C@@H]2O[C@H](CO)[C@@H](O)[C@H]2O)c1 [R2 = NH2,3-methoxyxybenzylamino]	> 167	> 167	> 167	> 167	13.8	8.9	> 167	
COc1ccccc1CNc1nc(SC)nc2c1ncn2[C@@H]1O[C@H](CO)[C@@H](O)[C@H]1O [R2 = SCH3,2-methoxyxybenzylamino]	34.3	34.8	> 167	> 167	11.5	10.2	> 167	
CSc1nc(NCc2cccc(F)c2)c2ncn([C@@H]3O[C@H](CO)[C@@H](O)[C@H]3O)c2n1 [R2 = SCH3,3-fluorobenzylamino]	> 167	7.9	31	> 167	8.5	5.2	28	
COc1cccc(CNc2nc(SC)nc3c2ncn3[C@@H]2O[C@H](CO)[C@@H](O)[C@H]2O)c1 [R2 = SCH3,3-methoxyxybenzylamino]	> 167	> 167	> 167	> 167	16.5	8.8	> 167	
Nc1ncnc2c1ncn2[C@@H]1O[C@H](CO)[C@@H](O)[C@H]1O [adenosine]								IC50 (HOS; Homo sapiens, HOS): > 167 µM; IC50 ([2]; Homo sapiens, K562, 72 hours): > 167 µM; IC50 ([3]; Homo sapiens, MCF7, 72 hours): > 167 µM; IC50 (mouse fibroblasts NIH3T3; Mus musculus, NIH3T3, 72 hours): > 167 µM; IC50 ([8]; Homo sapiens, G-361, 72 hours): > 167 µM; IC50 ([4]; Homo sapiens): > 167 µM; IC50 (promyelocytic HL-60; Homo sapiens, HL-60, 72 hours): > 167 µM
C/C(=C\CNc1ncnc2c1ncn2[C@@H]1O[C@H](CO)[C@@H](O)[C@H]1O)CO [zeatin riboside, reference compound]	> 167	> 167	> 167	> 167	> 167	> 167	> 167	
